# Results as given in ChEMBL document CHEMBL1201862, “PubChem BioAssay data set” (2004).
#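 Method: 48-hour compound exposure of cells in 96-well plates, five concentrations, linear interpolation of endpoints. GI50: concentration for 50% inhibition of growth.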 Calls of active or inactive are those of the source. Cut-off read from the data, not from the text of the source: active = GI50 up to about 1.1 µM and inactive = higher.
# Assays:
# Assay in all cases: inhibition of tumour cell growth, NCI panel, 48 h
# 786-0 = tested on: 786-0
# A498 = tested on: A498
# A549 = tested on: A549
# ACHN = tested on: ACHN
# CAKI-1 = tested on: CAKI-1
# CCRF-CEM = tested on: CCRF-CEM
# COLO 205 = tested on: COLO 205
# DLD-1 = tested on: DLD-1
# DMS-273 = tested on: DMS-273
# EKVX = tested on: EKVX
# HCC 2998 = tested on: HCC 2998
# HCT-116 = tested on: HCT-116
# HCT-15 = tested on: HCT-15
# HL-60 = tested on: HL-60
# HOP-18 = tested on: HOP-18
# HOP-62 = tested on: HOP-62
# HOP-92 = tested on: HOP-92
# HT-29 = tested on: HT-29
# IGROV-1 = tested on: IGROV-1
# K562 = tested on: K562
# KM12 = tested on: KM12
# LOX IMVI = tested on: LOX IMVI
# M14 = tested on: M14
# M19-MEL = tested on: M19-MEL
# MOLT-4 = tested on: MOLT-4
# Malme-3M = tested on: Malme-3M
# NCI-H226 = tested on: NCI-H226
# NCI-H23 = tested on: NCI-H23
# NCI-H460 = tested on: NCI-H460
# OVCAR-3 = tested on: OVCAR-3
# OVCAR-4 = tested on: OVCAR-4
# OVCAR-5 = tested on: OVCAR-5
# OVCAR-8 = tested on: OVCAR-8
# RXF 393 = tested on: RXF 393
# SF-268 = tested on: SF-268
# SF-295 = tested on: SF-295
# SF-539 = tested on: SF-539
# SK-MEL-28 = tested on: SK-MEL-28
# SK-MEL-2 = tested on: SK-MEL-2
# SK-MEL-5 = tested on: SK-MEL-5
# SK-OV-3 = tested on: SK-OV-3
# SN12C = tested on: SN12C
# SNB-19 = tested on: SNB-19
# SNB-75 = tested on: SNB-75
# SNB-78 = tested on: SNB-78
# SW-620 = tested on: SW-620
# TK-10 = tested on: TK-10
# U-251 = tested on: U-251
# UACC-257 = tested on: UACC-257
# UACC-62 = tested on: UACC-62
# UO-31 = tested on: UO-31
structure (smiles),measurement,setting,value
Cc1ccc(C(=O)C#Cc2cnc(O)nc2O)cc1,GI50,786-0,13.4 µM (inactive)
same,GI50,A498,14.7 µM (inactive)
same,GI50,A549,18.3 µM (inactive)
same,GI50,ACHN,15.6 µM (inactive)
same,GI50,CAKI-1,16.9 µM (inactive)
same,GI50,CCRF-CEM,3.44 µM (inactive)
same,GI50,COLO 205,13 µM (inactive)
same,GI50,DLD-1,10.3 µM (inactive)
same,GI50,DMS-273,16.1 µM (inactive)
same,GI50,EKVX,17.2 µM (inactive)
same,GI50,HCC 2998,12.7 µM (inactive)
same,GI50,HCT-116,5.94 µM (inactive)
same,GI50,HCT-15,13.8 µM
same,GI50,HL-60,11.5 µM (inactive)
same,GI50,HOP-18,18.6 µM (inactive)
same,GI50,HOP-62,29.3 µM (inactive)
same,GI50,HOP-92,18.6 µM (inactive)
same,GI50,HT-29,21.5 µM (inactive)
same,GI50,IGROV-1,16.7 µM (inactive)
same,GI50,K562,6.07 µM (inactive)
same,GI50,KM12,14.7 µM (inactive)
same,GI50,LOX IMVI,3.92 µM (inactive)
same,GI50,M14,13.2 µM (inactive)
same,GI50,M19-MEL,14.7 µM (inactive)
same,GI50,MOLT-4,3.41 µM (inactive)
same,GI50,Malme-3M,5.56 µM (inactive)
same,GI50,NCI-H226,17.4 µM (inactive)
same,GI50,NCI-H23,17.5 µM (inactive)
same,GI50,NCI-H460,16.7 µM (inactive)
same,GI50,OVCAR-3,13.5 µM (inactive)
same,GI50,OVCAR-4,21.8 µM (inactive)
same,GI50,OVCAR-5,18.9 µM (inactive)
same,GI50,OVCAR-8,12.4 µM (inactive)
same,GI50,RXF 393,2.99 µM (inactive)
same,GI50,SF-268,13.1 µM (inactive)
same,GI50,SF-295,29.2 µM (inactive)
same,GI50,SF-539,4.09 µM (inactive)
same,GI50,SK-MEL-28,16.9 µM (inactive)
same,GI50,SK-MEL-2,14.4 µM (inactive)
same,GI50,SK-MEL-5,13.6 µM (inactive)
same,GI50,SK-OV-3,25.2 µM (inactive)
same,GI50,SN12C,4.55 µM (inactive)
same,GI50,SNB-19,18.2 µM (inactive)
same,GI50,SNB-75,19.1 µM (inactive)
same,GI50,SNB-78,11.9 µM (inactive)
same,GI50,SW-620,8.69 µM (inactive)
same,GI50,TK-10,18 µM (inactive)
same,GI50,U-251,12.9 µM (inactive)
same,GI50,UACC-257,14.2 µM (inactive)
same,GI50,UACC-62,10.2 µM (inactive)
same,GI50,UO-31,17.4 µM (inactive)
